Source: US20020151553A1, “Chemokine receptor antagonists and methods of use therefor” (Millennium Pharmaceuticals, Inc., priority 1996, published 2002)
Where two headings read alike, the source gives them in different places.

Target: T1, chemokine receptor (RANTES / MIP-1α binding) on THP-1 cell membranes (Homo sapiens, UniProt P32246)
T1 sequence (P32246 1-355): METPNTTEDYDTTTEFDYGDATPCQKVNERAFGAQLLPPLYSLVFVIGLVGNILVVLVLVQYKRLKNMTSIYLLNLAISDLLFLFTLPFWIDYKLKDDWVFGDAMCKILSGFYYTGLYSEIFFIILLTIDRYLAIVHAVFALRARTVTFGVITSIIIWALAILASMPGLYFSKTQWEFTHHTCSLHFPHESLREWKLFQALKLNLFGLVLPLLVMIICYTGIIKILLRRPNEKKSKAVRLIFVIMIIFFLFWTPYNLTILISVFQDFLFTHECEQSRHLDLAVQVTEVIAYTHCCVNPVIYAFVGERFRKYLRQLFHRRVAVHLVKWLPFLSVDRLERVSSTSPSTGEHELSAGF
Assay: Receptor binding assay with 125I-RANTES or 125I-MIP-1α as ligand and THP-1 cell membranes
Protocol: Membranes were prepared from THP-1 cells (ATCC #TIB202). Cells were harvested by centrifugation, washed twice with PBS (phosphate-buffered saline), and the cell pellets were frozen at −70 to −85° C. […] This procedure results in cell lysis. The suspension was mixed well to resuspend all of the frozen cell pellet. Nuclei and cell debris were removed by centrifugation of 400× g for 10 minutes at 4° C. The supernatant was transferred to a fresh tube and the membrane fragments were collected by centrifugation at 25,000× g for 30 minutes at 4° C. The supernatant was aspirated and the pellet was resuspended in freezing buffer consisting of 10 mM HEPES pH 7.5, 300 mM sucrose, 1 μg/ml each aprotinin, leupeptin, and chymostatin, and 10 μg/ml PMSF approximately 0.1 ml per each 10^8 cells). All clumps were resolved using a minihomogenizer, and the total protein concentration was determined using a protein assay kit (Bio-Rad, Hercules, Calif., cat #500-0002). The membrane solution was then aliquoted and frozen at −70 to −85° C. until needed. Binding Assays utilized the membranes described above.

[1] = 125I-RANTES or 125I-MIP-1α as ligand, THP-1 cell membranes, 60 min at room temperature, read-out: IC50 (inhibitor concentration required for 50% inhibition of specific binding)

| Compound | IC50 [1] [µM] | IC50 [µM] |
| --- | --- | --- |
| 1-[2-[3-[4-(4-chlorophenyl)-4-hydroxypiperidino]propyl]-2-(6,11-dihydrodibenzo[b,e]thiepi n-11-yl)ethyl]-3-(hydroxypropyl)urea [Example 23] | 2.2 | – |
| N#CC1(CCCN2CCC(O)(c3ccc(Cl)cc3)CC2)c2ccccc2C[S+]([O-])c2ccccc21 (single isomer, unassigned) [Example 14, 4-(4-Chlorophenyl)-1-[3-(11-cyano-6,11-dihydro-5-oxodibenzo[b,e]thiepin-11-yl)propyl]piperidin-4-ol] | – | 0.28 |
| N#CC1(CCCN2CCC(O)(c3ccc(Cl)cc3)CC2)c2ccccc2C[S+]([O-])c2ccccc21 (single isomer, unassigned) [Example 15, 4-(4-Chlorophenyl)-1-[3-(11-cyano-6,11-dihydro-5-oxodibenzo[b,e]thiepin-11-yl)propyl]piperidin-4-ol] | – | 0.61 |
| N#CC1(CCCN2CCC(O)(c3ccc(Cl)cc3)CC2)c2ccccc2C=Cc2ccccc21 [Example 1, 4-(4-Chlorophenyl)1-[3-(5-cyano-5H-dibenzo[a,d]cycloheptene-5-yl)propyl]piperidin-4-ol] | 0.088 | – |
| N#CC1(CCCN2CCC(O)(c3ccc(Cl)cc3)CC2)c2ccccc2CCc2ccccc21 [Example 2, 4-(4-Chlorophenyl)-1-[3-(5-cyano-10,11-dihydro-5H-dibenzo[a,d]cycloheptene-5-yl)propyl]piperidin-4-ol] | – | 0.052 |
| N#CC1(CCCN2CCC(O)(c3ccc(Cl)cc3)CC2)c2ccccc2COc2ccccc21 (centres unmarked) [Example 3, 4-(4-Chlorophenyl)-1-[3-(11-cyano-6,11-dihydrodibenz[b,e]oxepin-11-yl)propyl]piperidin-4-ol] | 0.11 | – |
| N#CC1(CCCN2CCC(O)(c3ccc(F)cc3)CC2)c2ccccc2COc2ccccc21 (centres unmarked) [Example 4, 1-[3-(11-Cyano-6,11-dihydrodibenz[b,e]oxepin-11-yl)propyl]-4-(4-fluorophenyl)piperidin-4-ol] | 0.39 | – |
| N#CC1(CCCN2CCC(O)(c3ccc(Cl)cc3)CC2)c2ccccc2COc2ccc(F)cc21 (centres unmarked) [Example 5, 4-(4-Chlorophenyl)-1-[3-(11-cyano-6,11-dihydro-2-fluorodibenz[b,e]oxepin-11-yl)propyl]piperidin-4-ol] | 0.19 | – |
| N#CC1(CCCN2CCC(O)(c3ccc(Cl)cc3)CC2)c2ccccc2COc2ccc(Br)cc21 (centres unmarked) [Example 6, 1-[3-(2-Bromo-11-cyano-6,11-dihydrodibenz[b,e]oxepin-11-yl)propyl]-4-(4-chlorophenyl)piperidin-4-ol] | 0.3 | – |
| Cc1ccc2c(c1)C(C#N)(CCCN1CCC(O)(c3ccc(Cl)cc3)CC1)c1ccccc1CO2 (centres unmarked) [Example 7, 4-(4-Chlorophenyl)-1-[3-(11-cyano-6,11-dihydro-2-methyldibenz[b,e]oxepin-11-yl)propyl]piperidin-4-ol] | 0.38 | – |
| N#CC1(CCCN2CCC(O)(c3ccc(Cl)cc3)CC2)c2ccccc2CSc2ccccc21 (centres unmarked) [Example 10, 4-(4-Chlorophenyl)-1-[3-(11-cyano-6,11-dihydrodibenzo[b,e]thiepin-11-yl)propyl] piperidin-4-ol] | – | 0.097 |
| N#CC1(CCCN2CCC(O)(c3ccccc3)CC2)c2ccccc2CSc2ccccc21 (centres unmarked) [Example 11, 1-[3-(1l-Cyano-6,11-dihydrodibenzo[b,e]thiepin-11-yl)propyl]-4-phenylpiperidin-4-ol] | 11 | – |
| N#CC1(CCCN2CCC(O)(c3ccc(Br)cc3)CC2)c2ccccc2CSc2ccccc21 (centres unmarked) [Example 12, 4-(4-Bromophenyl)-1-[3-(11-cyano-6,11-dihydrodibenzo[b,e]thiepin-11-yl)propyl]piperidi n-4-ol] | 0.099 | – |
| N#CC1(CCCN2CCC(O)(c3ccc(Cl)cc3)CC2)c2ccccc2CSc2ccc(Br)cc21 (centres unmarked) [Example 13, 1-[3-(2-Bromo-11-cyano-6,11-dihydrodibenzo[b,e]thiepin-11-yl)propyl]-4-(4-chlorophenyl)piperidin-4-ol] | 0.38 | – |
| N#CC1(CCCN2CCC(O)(c3ccc(Cl)cc3)CC2)c2ccccc2CS(=O)(=O)c2ccccc21 (centres unmarked) [Example 16, 4-(4-Chlorophenyl)-1-[3-(11-cyano-6,11-dihydro-5,5-dioxodibenzo[b,e]thiepin-11-yl)propyl]piperidin-4-ol] | 0.079 | – |
| OC1(c2ccc(Cl)cc2)CCN(CCCC2c3ccccc3CSc3ccccc32)CC1 (centres unmarked) [Example 17, 4-(4-Chlorophenyl)-1-[3-(6,11-dihydrodibenzo[b,e]thiepin-11-yl)propyl]piperidin-4-ol] | 0.07 | – |
| OC1(c2ccc(Cl)cc2)CCN(CCCC2c3ccccc3CCc3ccccc32)CC1 [Example 18, 4-(4-Chlorophenyl)-1-[3-(10,11-dihydro-5H-dibenzo[a,d]cycloheptene-5-yl)propyl]piperidin-4-ol] | 0.055 | – |
| OC1(c2ccc(Cl)cc2)CCN(CCCC2c3ccccc3COc3ccccc32)CC1 (centres unmarked) [Example 19, 4-(4-Chlorophenyl)-1-[3-(6,11-dihydrodibenz[b,e]oxepin-11-yl)propyl]piperidin-4-ol] | 0.059 | – |
| O=C(NCC1(CCCN2CCC(O)(c3ccc(Cl)cc3)CC2)c2ccccc2CSc2ccccc21)Oc1ccccc1 (centres unmarked) [Example 22] | – | 0.69 |
| O=C(CCN1CCC(O)(c2ccc(Cl)cc2)CC1)C1c2ccccc2CCc2ccccc21 [Example 24, 4-(4-Chlorophenyl)-1-[3-(10,11-dihydro-5H-dibenzo[a,d]cycloheptene-5-yl)-3-propioyl]piperidin-4-ol] | – | 0.16 |
